In US7384629B2, “Biological control of nematodes with Hirsutella minnesotensis” (Regents of the University of Minnesota, priority 2000, dated 2008):

Test system: Hirsutella rhossiliensis
Assay: Effect of carbon source on growth, sporulation and spore germination
Details: for Growth mm-in-diam, on agar: carbon source 4 g/liter carbon; for Growth mm-in-diam, on agar / Sporulation 10^3/cm^2, on agar / growth in liquid culture (visual rating): 5 weeks; for Sporulation 10^3/cm^2, on agar / growth in liquid culture (visual rating) / Spore germination %, on agar: carbon source; for Spore germination %, on agar: after incubation for 24 hr

With OC[C@H]1O[C@H](O[C@H]2[C@H](O)[C@@H](O)[C@H](O)O[C@@H]2CO)[C@H](O)[C@@H](O)[C@@H]1O [Maltose monohydrate] the “Growth mm-in-diam, on agar” value (isolate ATCC46487) was 34.3 mm-in-diam, the “Growth mm-in-diam, on agar” value (isolate JA16-1) was 11.0 mm-in-diam and the “Growth mm-in-diam, on agar” value (isolate OWVT-1) was 13.7 mm-in-diam. For the same compound, the “Sporulation 10^3/cm^2, on agar” value (isolate ATCC46487) was 21.9 10^3/cm^2, the “growth in liquid culture (visual rating)” value (isolate ATCC46487) was “I” and the “Spore germination %, on agar” value (isolate ATCC46487) was 36.7%. For the same compound, the “Sporulation 10^3/cm^2, on agar” value (isolate JA16-1) was 26.6 10^3/cm^2, the “growth in liquid culture (visual rating)” value (isolate JA16-1) was “I” and the “Spore germination %, on agar” value (isolate JA16-1) was 64.5%. For the same compound, the “Sporulation 10^3/cm^2, on agar” value (isolate OWVT-1) was 34.2 10^3/cm^2, the “growth in liquid culture (visual rating)” value (isolate OWVT-1) was “I” and the “Spore germination %, on agar” value (isolate OWVT-1) was 46.7%.

For O=C[C@H](O)[C@@H](O)[C@H](O)[C@H](O)CO [D-(+)-glucose], the “Growth mm-in-diam, on agar” value (isolate ATCC46487) was 28.3 mm-in-diam, the “Growth mm-in-diam, on agar” value (isolate JA16-1) was 6.5 mm-in-diam and the “Growth mm-in-diam, on agar” value (isolate OWVT-1) was 8.0 mm-in-diam. The “Sporulation 10^3/cm^2, on agar” value (isolate ATCC46487) was 7.7 10^3/cm^2, the “growth in liquid culture (visual rating)” value (isolate ATCC46487) was “I” and the “Spore germination %, on agar” value (isolate ATCC46487) was 61.1%. For the same compound, the “Sporulation 10^3/cm^2, on agar” value (isolate JA16-1) was 28.1 10^3/cm^2, the “Spore germination %, on agar” value (isolate JA16-1) was 65.5% and the “Sporulation 10^3/cm^2, on agar” value (isolate OWVT-1) was 30.7 10^3/cm^2. For the same compound, the “growth in liquid culture (visual rating)” value (isolate OWVT-1) was “I” and the “Spore germination %, on agar” value (isolate OWVT-1) was 56.7%.

In the case of O=C(CO)[C@@H](O)[C@H](O)[C@@H](O)CO [L-(−)-sorbose], the “Growth mm-in-diam, on agar” value (isolate ATCC46487) is reported as 7.8 mm-in-diam, the “Growth mm-in-diam, on agar” value (isolate JA16-1) is reported as 0.0 mm-in-diam and the “Growth mm-in-diam, on agar” value (isolate OWVT-1) is reported as 6.7 mm-in-diam. The “Sporulation 10^3/cm^2, on agar” value (isolate ATCC46487) was 62.5 10^3/cm^2, the “growth in liquid culture (visual rating)” value (isolate ATCC46487) was “I” and the “Spore germination %, on agar” value (isolate ATCC46487) was 35.6%. The “Sporulation 10^3/cm^2, on agar” value (isolate JA16-1) was 0.0 10^3/cm^2, the “Spore germination %, on agar” value (isolate JA16-1) was 13.3% and the “Sporulation 10^3/cm^2, on agar” value (isolate OWVT-1) was 7.4 10^3/cm^2. For the same compound, the “growth in liquid culture (visual rating)” value (isolate OWVT-1) was “I” and the “Spore germination %, on agar” value (isolate OWVT-1) was 26.7%.

In the case of O=C[C@H](O)[C@@H](O)[C@H](O)CO [D(+)xylose], the “Growth mm-in-diam, on agar” value (isolate ATCC46487) is reported as 0.0 mm-in-diam, the “Growth mm-in-diam, on agar” value (isolate JA16-1) is reported as 0.0 mm-in-diam and the “Growth mm-in-diam, on agar” value (isolate OWVT-1) is reported as 0.0 mm-in-diam. The “Sporulation 10^3/cm^2, on agar” value (isolate ATCC46487) was 0.0 10^3/cm^2, the “Spore germination %, on agar” value (isolate ATCC46487) was 21.1% and the “Sporulation 10^3/cm^2, on agar” value (isolate JA16-1) was 2.5 10^3/cm^2. The “Spore germination %, on agar” value (isolate JA16-1) was 24.4%, the “Sporulation 10^3/cm^2, on agar” value (isolate OWVT-1) was 0.0 10^3/cm^2 and the “Spore germination %, on agar” value (isolate OWVT-1) was 26.7%.

O=C[C@H](O)[C@@H](O)[C@@H](O)[C@H](O)CO [D(+)galactose] was tested, and the “Growth mm-in-diam, on agar” value (isolate ATCC46487) was 25.0 mm-in-diam, the “Growth mm-in-diam, on agar” value (isolate JA16-1) was 0.0 mm-in-diam and the “Growth mm-in-diam, on agar” value (isolate OWVT-1) was 7.0 mm-in-diam. For the same compound, the “Sporulation 10^3/cm^2, on agar” value (isolate ATCC46487) was 2.8 10^3/cm^2, the “growth in liquid culture (visual rating)” value (isolate ATCC46487) was “I” and the “Spore germination %, on agar” value (isolate ATCC46487) was 62.2%. The “Sporulation 10^3/cm^2, on agar” value (isolate JA16-1) was 7.4 10^3/cm^2, the “Spore germination %, on agar” value (isolate JA16-1) was 43.3% and the “Sporulation 10^3/cm^2, on agar” value (isolate OWVT-1) was 7.7 10^3/cm^2. The “Spore germination %, on agar” value (isolate OWVT-1) was 43.3%.

OC[C@H]1O[C@H](O[C@H]2O[C@H](CO)[C@@H](O)[C@H](O)[C@H]2O)[C@H](O)[C@@H](O)[C@@H]1O [D(+) trehalose] was tested, and the “Growth mm-in-diam, on agar” value (isolate ATCC46487) was 36.5 mm-in-diam, the “Growth mm-in-diam, on agar” value (isolate JA16-1) was 18.3 mm-in-diam and the “Growth mm-in-diam, on agar” value (isolate OWVT-1) was 30.2 mm-in-diam. The “Sporulation 10^3/cm^2, on agar” value (isolate ATCC46487) was 172.6 10^3/cm^2, the “Spore germination %, on agar” value (isolate ATCC46487) was 60.0% and the “Sporulation 10^3/cm^2, on agar” value (isolate JA16-1) was 5.2 10^3/cm^2. For the same compound, the “Spore germination %, on agar” value (isolate JA16-1) was 68.9%, the “Sporulation 10^3/cm^2, on agar” value (isolate OWVT-1) was 49.2 10^3/cm^2 and the “Spore germination %, on agar” value (isolate OWVT-1) was 62.2%.

With OC[C@@H](O)[C@@H](O)[C@H](O)[C@@H](O)CO [D-sorbitol] the “Growth mm-in-diam, on agar” value (isolate ATCC46487) was 30.3 mm-in-diam, the “Growth mm-in-diam, on agar” value (isolate JA16-1) was 18.3 mm-in-diam and the “Growth mm-in-diam, on agar” value (isolate OWVT-1) was 11.7 mm-in-diam. The “Sporulation 10^3/cm^2, on agar” value (isolate ATCC46487) was 64.7 10^3/cm^2, the “growth in liquid culture (visual rating)” value (isolate ATCC46487) was “III (III = hyphae growth or colonies form a pellet, less than 2.5 ml)” and the “Spore germination %, on agar” value (isolate ATCC46487) was 57.8%. The “Sporulation 10^3/cm^2, on agar” value (isolate JA16-1) was 4.2 10^3/cm^2, the “growth in liquid culture (visual rating)” value (isolate JA16-1) was “I” and the “Spore germination %, on agar” value (isolate JA16-1) was 67.8%. The “Sporulation 10^3/cm^2, on agar” value (isolate OWVT-1) was 126.0 10^3/cm^2 and the “Spore germination %, on agar” value (isolate OWVT-1) was 56.7%.
